Measured values: patent US9751854B2 (Millennium Pharmaceuticals, Inc., priority 2014, dated 2017)

Biological target: human VPS34 (Homo sapiens (Human), UniProt Q8NEB9)
Assay: Human VPS34 enzyme assay (Adapta TR-FRET ADP detection)
Type: biochemical
Design: Percent Inhibition: dose or concentration left out as unconfirmed
Conditions: not given

human VPS34, sequence (Q8NEB9 whole entry): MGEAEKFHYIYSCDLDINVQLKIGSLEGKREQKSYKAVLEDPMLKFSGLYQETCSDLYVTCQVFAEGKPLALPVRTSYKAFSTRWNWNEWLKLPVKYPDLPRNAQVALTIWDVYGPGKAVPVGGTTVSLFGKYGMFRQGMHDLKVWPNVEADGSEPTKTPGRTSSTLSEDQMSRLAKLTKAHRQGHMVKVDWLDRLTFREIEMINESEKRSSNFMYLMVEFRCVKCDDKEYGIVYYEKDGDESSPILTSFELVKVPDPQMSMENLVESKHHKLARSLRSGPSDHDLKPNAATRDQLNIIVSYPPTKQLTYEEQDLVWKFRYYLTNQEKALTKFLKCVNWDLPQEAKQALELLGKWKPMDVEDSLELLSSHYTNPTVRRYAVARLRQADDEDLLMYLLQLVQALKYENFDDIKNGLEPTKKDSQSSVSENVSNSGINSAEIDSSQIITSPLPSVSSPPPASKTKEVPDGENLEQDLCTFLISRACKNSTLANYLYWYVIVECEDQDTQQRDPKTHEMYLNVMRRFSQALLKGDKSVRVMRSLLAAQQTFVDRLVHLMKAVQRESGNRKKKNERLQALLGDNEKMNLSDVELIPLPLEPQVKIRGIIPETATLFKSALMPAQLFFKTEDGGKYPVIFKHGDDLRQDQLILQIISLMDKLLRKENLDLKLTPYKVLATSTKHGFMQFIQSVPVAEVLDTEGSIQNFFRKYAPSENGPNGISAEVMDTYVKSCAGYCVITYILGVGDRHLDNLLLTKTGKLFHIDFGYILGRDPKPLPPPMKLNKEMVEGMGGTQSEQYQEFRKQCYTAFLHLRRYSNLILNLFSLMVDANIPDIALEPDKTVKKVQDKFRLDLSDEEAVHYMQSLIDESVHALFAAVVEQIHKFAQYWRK

**Q.** For `CC(=O)Nc1cc(-c2cnc(C)c(NS(=O)(=O)N3CC4CCC3C4)c2)ccn1` (centres unmarked) [Compound I-445, N-{5-[(2-azabicyclo[2.2.1]hept-2-ylsulfonyl)amino]-6-methyl-3,4′-bipyridin-2′-yl}acetamide], which “Percent Inhibition” value is on record?
**A.** >99%

Same assay, conditions: IC50 range class

**Q.** `COc1ncc(-c2ccnc(NC(C)=O)c2)cc1S(=O)(=O)NC1CCC1` [Compound I-426, N-[5-(cyclobutylsulfamoyl)-6-methoxy-3,4′-bipyridin-2′-yl]acetamide] was tested. Which IC50 did it give?
**A.** 10 to 50 nM

**Q.** For `CN(C)S(=O)(=O)Nc1cc(-c2ccnc(Nc3ccnc(C4CC4)n3)c2)cn2nccc12` [Compound I-427, N′-(6-{2-[(2-cyclopropylpyrimidin-4-yl)amino]pyridin-4-yl}pyrazolo[1,5-a]pyridin-4-yl)-N,N-dimethylsulfuric diamide], which IC50 is on record?
**A.** < 10 nM

**Q.** `CC(=O)Nc1cc(-c2cc(OS(=O)(=O)N(C)C)c3ccnn3c2)ccn1` [Compound I-428, 6-(2-acetamidopyridin-4-yl)pyrazolo[1,5-a]pyridin-4-yl dimethylsulfamate] was tested. Which IC50 did it give?
**A.** < 10 nM

**Q.** Which IC50 does the source give for `CC(=O)Nc1cc(-c2cnc(Cl)c(NS(=O)(=O)c3ccc(C#N)cc3)c2C)ccn1` [Compound I-429, N-(6-chloro-5-{[(4-cyanophenyl)sulfonyl]amino}-4-methyl-3,4′-bipyridin-2′-yl)acetamide] here?
**A.** 10 to 50 nM

**Q.** How did the IC50 turn out when `Cc1cnc(NC(=O)C2CC2)cc1-c1cnc(Cl)c(NS(=O)(=O)c2ccc(F)cc2F)c1C` [Compound I-430, N-(6-chloro-5-{[(2,4-difluorophenyl)sulfonyl]amino}-4,5′-dimethyl-3,4′-bipyridin-2′-yl)cyclopropanecarboxamide] was run?
**A.** 10 to 50 nM

**Q.** Which IC50 does the source give for `CC(=O)Nc1cc(-c2cnc(C)c(C(=O)Nc3ccc(F)cc3F)c2)ccn1` [Compound I-431, 2′-acetamido-N-(2,4-difluorophenyl)-6-methyl-3,4′-bipyridine-5-carboxamide] here?
**A.** > 100 nM

**Q.** Which IC50 does the source give for `COc1ncc(-c2ccnc(NC(C)=O)c2)cc1S(=O)(=O)Nc1cc(Cl)ccc1Cl` [Compound I-432, N-{5-[(2,5-dichlorophenyl)sulfamoyl]-6-methoxy-3,4′-bipyridin-2′-yl}acetamide] here?
**A.** 10 to 50 nM

**Q.** For `Cc1ncc(-c2ccnc(NC(=O)C3CC3)c2)cc1NS(=O)(=O)c1ccc(Cl)cc1F` [Compound I-433, N-(5-{[(4-chloro-2-fluorophenyl)sulfonyl]amino}-6-methyl-3,4′-bipyridin-2′-yl)cyclopropanecarboxamide], which IC50 is on record?
**A.** 10 to 50 nM

**Q.** With `CC(=O)Nc1cc(-c2cnc(Cl)c(C(=O)N3CCC3)c2)c(C)cn1` [Compound I-434, N-[5-(azetidin-1-ylcarbonyl)-6-chloro-5′-methyl-3,4′-bipyridin-2′-yl]acetamide] as the compound, how does the IC50 read?
**A.** > 100 nM

**Q.** How did the IC50 turn out when `Cc1c(-c2ccnc(Nc3ccnc(C4CC4)n3)c2)cnc(Cl)c1NS(=O)(=O)N(C)C` [Compound I-435, N′-{6-chloro-2′-[(cyclopropylpyrimidin-4-yl)amino]-4-methyl-3,4′-bipyridin-5-yl}-N,N-dimethylsulfuric diamide] was run?
**A.** < 10 nM

**Q.** `CNc1ncc(-c2ccnc(NC(C)=O)c2)c(C)c1S(=O)(=O)NC(C)(C)C` [Compound I-436] was tested. Which IC50 did it give?
**A.** 50 to 100 nM

**Q.** Which IC50 does the source give for `CC(=O)Nc1cc(-c2cnc(Cl)c(NS(=O)(=O)c3cccc4ncccc34)c2C)ccn1` [Compound I-437, N-{6-chloro-4-methyl-5-[(quinolin-5-ylsulfonyl)amino]-3,4′-bipyridin-2′-yl}acetamide] here?
**A.** 10 to 50 nM

**Q.** For `CC(=O)Nc1cc(-c2cnc(Cl)c(S(=O)(=O)NC3CCC3)c2)ccn1` [Compound I-438, N-[6-chloro-5-(cyclobutylsulfamoyl)-3,4′-bipyridin-2′-yl]acetamide], which IC50 is on record?
**A.** 10 to 50 nM

**Q.** `Cc1nccc(Nc2cc(-c3cnc(C)c(NC(=O)Nc4ccccc4)c3)ccn2)n1` [Compound I-439, 1-{6-methyl-2′-[(2-methylpyrimidin-4-yl)amino]-3,4′-bipyridin-5-yl}-3-phenylurea] was tested. Which IC50 did it give?
**A.** > 100 nM

**Q.** How did the IC50 turn out when `Cc1nccc(Nc2cc(-c3cncc(OC4CCc5c(F)cccc54)c3)ccn2)n1` (centres unmarked) [Compound I-440, 5-[(4-fluoro-2,3-dihydro-1H-inden-1-yl)oxy]-N-(2-methylpyrimidin-4-yl)-3,4′-bipyridin-2′-amine] was run?
**A.** > 100 nM

**Q.** For `Cc1ncc(-c2ccnc(NC(=O)C3CC3(F)F)c2)cc1NS(=O)(=O)c1ccc(Cl)cc1F` (centres unmarked) [Compound I-441, N-(5-{[(4-chloro-2-fluorophenyl)sulfonyl]amino}-6-methyl-3,4′-bipyridin-2′-yl)-2,2-difluorocyclopropanecarboxamide], which IC50 is on record?
**A.** < 10 nM

**Q.** With `COc1ncc(-c2ccnc(NC(C)=O)c2)c(C)c1S(=O)(=O)NC(C)(C)C` [Compound I-442, N-[5-(tert-butylsulfamoyl)-6-methoxy-4-methyl-3,4′-bipyridin-2′-yl]acetamide] as the compound, how does the IC50 read?
**A.** 10 to 50 nM

**Q.** Which IC50 does the source give for `CC(=O)Nc1cc(-c2cncc(S(=O)(=O)NC(C)(C)C)c2)ccn1` [Compound I-443, N-[5-(tert-butylsulfamoyl)-3,4′-bipyridin-2′-yl]acetamide] here?
**A.** 10 to 50 nM

**Q.** For `CC(=O)Nc1cc(-c2cnc(Cl)c(NS(=O)(=O)c3ccc(Br)cc3F)c2C)ccn1` [Compound I-444, N-(5-{[(4-bromo-2-fluorophenyl)sulfonyl]amino}-6-chloro-4-methyl-3,4′-bipyridin-2′-yl)acetamide], which IC50 is on record?
**A.** 10 to 50 nM

**Q.** Which IC50 does the source give for `CC(=O)Nc1cc(-c2cnc(C)c(NS(=O)(=O)N3CC4CCC3C4)c2)ccn1` (centres unmarked) [Compound I-445, N-{5-[(2-azabicyclo[2.2.1]hept-2-ylsulfonyl)amino]-6-methyl-3,4′-bipyridin-2′-yl}acetamide] here?
**A.** 10 to 50 nM

**Q.** With `Cc1nccc(Nc2cc(-c3cnc(C)c(OC(C)C)c3)ccn2)n1` [Compound I-446, 5-isopropoxy-6-methyl-N-(2-methylpyrimidin-4-yl)-3,4′-bipyridin-2′-amine] as the compound, how does the IC50 read?
**A.** 10 to 50 nM

**Q.** `CC(=O)Nc1cc(-c2cnc(C)c(NS(=O)(=O)N3CCOCC3)c2)ccn1` [Compound I-447, N-{6-methyl-5-[(morpholin-4-ylsulfonyl)amino]-3,4′-bipyridin-2′-yl}acetamide] was tested. Which IC50 did it give?
**A.** < 10 nM

**Q.** How did the IC50 turn out when `CC(=O)Nc1cc(-c2cnc(Cl)c(N3CCCNS3(=O)=O)c2)ccn1` [Compound I-448, N-[6-chloro-5-(1,1-dioxido-1,2,6-thiadiazinan-2-yl)-3,4′-bipyridin-2′-yl]acetamide] was run?
**A.** 10 to 50 nM

**Q.** For `CNc1ncc(-c2ccnc(NC(C)=O)c2)cc1C(=O)N(C)C12CC(C1)C2` [Compound I-449, 2′-acetamido-N-(bicyclo[1.1.1]pent-1-yl)-N-methyl-6-(methylamino)-3,4′-bipyridine-5-carboxamide], which IC50 is on record?
**A.** 10 to 50 nM

**Q.** For `CC(=O)Nc1cc(-c2ccnc(Nc3ccnc(C)n3)c2)cn2nccc12` [Compound I-450, N-(6-{2-[(2-methylpyrimidin-4-yl)amino]pyridin-4-yl}pyrazolo[1,5-a]pyridin-4-yl)acetamide], which IC50 is on record?
**A.** 10 to 50 nM

**Q.** With `CC(=O)Nc1cc(-c2cncc(N3CCCN(C)S3(=O)=O)c2)ccn1` [Compound I-452, N-[5-(6-methyl-1,1-dioxido-1,2,6-thiadiazinan-2-yl)-3,4′-bipyridin-2′-yl]acetamide] as the compound, how does the IC50 read?
**A.** 10 to 50 nM

**Q.** How did the IC50 turn out when `Cc1nccc(Nc2cc(-c3c[n+]([O-])c(Cl)c(NS(=O)(=O)c4ccc(F)cc4F)c3C)ccn2)n1` [Compound I-454, N-(2-chloro-4-methyl-5-{2-[(2-methylpyrimidin-4-yl)amino)pyridin-4-yl}-1-oxidopyridin-3-yl)-2,4-difluorobenzenesulfonamide] was run?
**A.** < 10 nM

**Q.** How did the IC50 turn out when `CNS(=O)(=O)Nc1cc(-c2ccnc(NC(C)=O)c2)cnc1C` [Compound I-455, N-{6-methyl-5-[(methylsulfamoyl)amino]-3,4′-bipyridin-2′-yl}acetamide] was run?
**A.** 10 to 50 nM

**Q.** `CCOC(=O)Nc1cc(-c2cnc(C)c(NS(=O)(=O)c3ccc(Cl)cc3F)c2)ccn1` [Compound I-456, ethyl (5-{[(4-chloro-2-fluorophenyl)sulfonyl]amino}-6-methyl-3,4′-bipyridin-2′-yl}carbamate] was tested. Which IC50 did it give?
**A.** < 10 nM

**Q.** Which IC50 does the source give for `Cc1nccc(Nc2cc(-c3cnc(Cl)c(C(=O)N4CCC4)c3C)ccn2)n1` [Compound I-457, axetidin-1-yl{6-chloro-4-methyl-2′-[(2-methylpyrimidin-4-yl)amino]-3,4′-bipyridine-5-yl)methanone] here?
**A.** 10 to 50 nM

**Q.** For `CC(=O)Nc1cc(-c2cncc(N(C)S(=O)(=O)N(C)C)c2)ccn1` [Compound I-458, N-{5-[(dimethylsulfamoyl)(methyl)amino]-3,4′-bipyridin-2′-yl}acetamide], which IC50 is on record?
**A.** 10 to 50 nM

**Q.** Which IC50 does the source give for `CC(=O)Nc1cc(-c2cncc(S(=O)(=O)Nc3ccccc3)c2)ccn1` [Compound I-459, N-[5-(phenylsulfamoyl)-3,4′-bipyridin-2′-yl]acetamide] here?
**A.** 10 to 50 nM

**Q.** With `CC(=O)Nc1cc(-c2cnc(C)c(N3CCCNC3=O)c2)ccn1` [Compound I-460, N-[6-methyl-5-(2-oxotetrahydropyrimidin-1(2H)-yl)-3,4′-bipyridin-2′-yl]acetamide] as the compound, how does the IC50 read?
**A.** > 100 nM

**Q.** For `CC(=O)Nc1cc(-c2cncc(S(=O)(=O)NC(C)(C)C)c2C)ccn1` [Compound I-462, N-(5-(N-(tert-butyl)sulfamoyl)-4-methyl-[3,4′-bipyridin]-2′-yl)acetamide], which IC50 is on record?
**A.** > 100 nM

**Q.** How did the IC50 turn out when `CC(=O)Nc1cc(-c2cnc(C)c(NS(=O)(=O)c3c(Cl)cccc3Cl)c2)ccn1` [Compound I-463, N-[5-{[(2,6-dichlorophenyl)sulfonyl]amino}-6-methyl-3,4′-bipyridin-2′-yl)acetamide] was run?
**A.** < 10 nM

**Q.** With `CC(=O)Nc1cc(-c2cnc(C)c(NS(=O)(=O)c3cc(Cl)sc3Cl)c2)ccn1` [Compound I-465, N-[5-{[(2,5-dichloro-3-thienyl)sulfonyl]amino}-6-methyl-3,4′-bipyridin-2′-yl)acetamide] as the compound, how does the IC50 read?
**A.** 10 to 50 nM

**Q.** For `Cc1c(-c2ccnc(Nc3ccnc(C4CC4)n3)c2)cnc(Cl)c1C(=O)N1CC(C)(C)C1` [Compound I-466, (6-chloro-2′-[(2-cyclopropylpyrimidin-4-yl)amino]-4-methyl-3,4′-bipyridin-5-yl](3,3-dimethylazetidin-1-yl)methanone], which IC50 is on record?
**A.** 10 to 50 nM

**Q.** With `CC(=O)Nc1cc(-c2cnc(Cl)c(N3CCCN(C)S3(=O)=O)c2)ccn1` [Compound I-467, N-[6-chloro-5-(6-methyl-1,1-dioxido-1,2,6-thiadiazinan-2-yl)-3,4′-bipyridin-2′-yl)acetamide] as the compound, how does the IC50 read?
**A.** < 10 nM

**Q.** For `CC(=O)Nc1cc(-c2cncc(S(=O)(=O)NC34CC5CC(CC(C5)C3)C4)c2)ccn1` [Compound I-468, N-[5-(adamantan-1-ylsulfamoyl)-3,4′-bipyridin-2′-yl]acetamide], which IC50 is on record?
**A.** 10 to 50 nM

**Q.** `CCc1c(-c2ccnc(NC(C)=O)c2)cnc(Cl)c1NS(=O)(=O)c1ccc(F)cc1F` [Compound I-469, N-(6-chloro-5-{[(2,4-difluorophenyl)sulfonyl]amino}-4-ethyl-3,4′-bipyridin-2′-yl)acetamide] was tested. Which IC50 did it give?
**A.** 10 to 50 nM
